Numbered stars: 1 amine (or outer) side, 2 acyl side, 3 side chain; on linkers, the order of the positions; unused ones are H or OH. Square brackets hold non-standard residues; d marks the D form. Peptide text beside a SMILES is read from it. * marks the point of attachment. ξ: configuration not given here. Biotin = O=C1N[C@H]2[C@H](CS[C@H]2CCCCC(=O)*)N1; X1 = O=C(C(CC1=NCNC1)N[*:1])[*:2]; ξW = NC(Cc1c[nH]c2ccccc12)C(=O)O; ξF = NC(Cc1ccccc1)C(=O)O; ξK = NCCCCC(N)C(=O)O; ξA = CC(N)C(=O)O
Experiments:
C2C12 myoblast cells [1] = assay: Muscle differentiation promotion in C2C12 myoblast cells depending on differentiation time, western blotting; format: cell-based; details: differentiation medium with 2% horse serum, 50 uM, after 1, 2 and 3 days of differentiation induction, western blotting (FIG. 2)
Method: Undifferentiated C2C12 myoblast cells were cultured in a dish having a diameter of 100 mm using a DMEM with 10% fetal bovine serum (FBS). When the cells covered about 70% of an area, the cells were seeded in a 6-well dish at 8×10^5/well and cultured until the cells covered 90% of an area. Thereafter, muscle differentiation was induced using a differentiation medium with 2% horse serum. In this case, the cells were treated with a myotide (Chemical Formula 2, Incospharm Corp.) composition (0.1% DMSO in phosphate buffer saline) of the present invention at a content of 50 uM. After 1, 2, and 3 days of differentiation induction, cell lysis was performed using a lysis buffer, and a degree of muscle differentiation was confirmed by western blotting.

C2C12 myoblast cells [2] = assay: Muscle differentiation promotion in C2C12 myoblast cells, western blotting of muscle proteins, concentration dependence; format: cell-based; details: differentiation medium with 2% horse serum, 0, 10 and 100 uM, after 3 days of differentiation induction, western blotting (FIG. 1)
Method: Undifferentiated C2C12 myoblast cells were cultured in a dish having a diameter of 100 mm using a Dulbecco's modified Eagle's medium (DMEM) with 10% fetal bovine serum (FBS). When the cells covered about 70% of an area, the cells were seeded in a 6-well dish at 8×10^5/well and cultured until the cells covered 90% of an area. Thereafter, muscle differentiation was induced using a differentiation medium with 2% horse serum. In this case, the cells were treated with a myotide (Chemical Formula 2, Incospharm Corp.) composition (0.1% DMSO in phosphate buffer saline) of the present invention at contents of 0, 10, and 100 uM. The differentiation medium was changed into a new differentiation medium containing […] every 24 hours, and after 3 days of differentiation induction, muscles cell lysis was performed using a cell lysis buffer, followed by western blotting. In order to confirm a degree of muscle differentiation, protein expression amounts of myosin heavy chain I, caveolin-3, and myogenin, which are representative protein of muscles, were observed. […] Therefore, the composition according to the present invention promoted muscle differentiation.

## CC(NC(=O)C(Cc1c[nH]c2ccccc12)NC(=O)C(CC1=NCNC1)NC(=O)CCCC[C@@H]1SC[C@@H]2NC(=O)N[C@@H]21)C(=O)NC(Cc1c[nH]c2ccccc12)C(=O)NC(Cc1ccccc1)C(=O)NC(CCCCN)C(N)=O (some centres unmarked) [myotide] (Biotin-[X1][ξW][ξA][ξW][ξF][ξK]-NH2)
C2C12 myoblast cells [1]
  expression of muscle proteins (myosin heavy chain I, caveolin-3, and myogenin): increased
C2C12 myoblast cells [2]
  expression of muscle proteins (myosin heavy chain I, caveolin-3, myogenin): concentration-dependently increased

— patent publication US20150072935A1, “COMPOSITION AND EXTERNAL APPLICATION FOR ACCELERATION OF MUSCLE DIFFERENTIATION AND IMPROVING OF MUSCLE MASS” (NEOPHARM CO., LTD., priority 2013, published 2015)
